Source: patent US20250382346A1, “NEURONAL PROMOTERS AND USES THEREOF” (priority 2023, published 2025)

Assays:
[1] = target: T1, rM3Ds (Rattus norvegicus, UniProt P08483, A177S/A238G/A489L/DEL261-437/DEL441-478/E258S/I253V/I483M/INS256[…]/K178L/K182A/K255R/K484R/K486H/L173F/L482A/M480V/R171S/R176Q/R179M/S481M/T174R/T181R/T257A/Y148C); assay: Striatal slice whole-cell recordings of retrogradely labeled D1-MSNs, rM3Ds; format: cell-based, mice; design: 2A-EYFP (C); expressed in transfected cells; host or cells: neurons (striatal D1-MSNs) of mice or cynomolgus macaques, transduced in vivo by nigral AAV8R12-G88P7-rM3Ds-2A-EYFP; details: AAV8R12-G88P7-rM3Ds-2A-EYFP; CNO 10 μM; basal firing rate and resting membrane potential unaffected
T1 sequence (P08483 with tags, fused parts or gaps Y148C/R171S/L173F/T174R/R176Q/A177S/K178L/R179M/T181R/K182A/A238G/I253V/K255R/INS256[…]/T257A/E258S/DEL261-437/DEL441-478/M480V/S481M/L482A/I483M/K484R/K486H/A489L): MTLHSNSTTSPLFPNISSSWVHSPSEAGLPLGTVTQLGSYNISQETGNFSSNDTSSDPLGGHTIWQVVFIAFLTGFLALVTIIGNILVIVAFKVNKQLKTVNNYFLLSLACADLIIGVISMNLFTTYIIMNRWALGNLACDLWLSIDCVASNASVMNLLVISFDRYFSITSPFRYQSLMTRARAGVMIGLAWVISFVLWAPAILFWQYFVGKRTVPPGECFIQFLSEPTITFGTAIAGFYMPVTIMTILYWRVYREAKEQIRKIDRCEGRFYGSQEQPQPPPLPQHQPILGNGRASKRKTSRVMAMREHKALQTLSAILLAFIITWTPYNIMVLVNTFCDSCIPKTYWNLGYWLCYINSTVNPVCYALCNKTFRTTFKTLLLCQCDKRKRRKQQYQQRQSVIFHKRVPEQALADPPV
Excerpt: Mice from different groups were anesthetized with […] isoflurane, and then decapitated. The brain was quickly extracted and placed in ice-cold N-methyl-D-glucamine (NMDG) cutting solution containing (in mM): 92 NMDG, 2.5 KCl, 25 NaHCO3, 1.25 NaH2PO4, 4.5 D-Glucose, 20 HEPES, 5 L-ascorbic acid, 3 Na-pyruvate, 2 Thiourea, 10 MgSO4, 0.5 CaCl2). The pH was adjusted to 7.2±0.1 using HCl and the osmolarity was adjusted to 305±5 mosmol/L using NMDG. The solution was bubbled with 95% O2/5% CO2 prior to use. Coronal striatum slices were cut in 250-[…]m thickness with a vibratome slicer (Leica, VT1200 S), and then incubated in artificial cerebrospinal fluid (aCSF) saturated with 95% O2/5% CO2 for at least 45 min at 37° C. before recording. The aCSF contains (in mM) 125 NaCl, 1.25 KCl, 25 NaHCO3, 1.25 KH2PO4, 25 D-Glucose, 2 CaCl2) and 1 MgCl2, supplemented with 2 mM Na-pyruvate, 3 mM Myo-inositol and 0.4 mM L-ascorbic acid.
The acute striatum slice was transferred to the recording chamber with a constant perfusion of oxygenized aCSF at the rate of 3 ml/min. Neurons were visualized using an upright microscope (Olympus, BX-51) with a 40× water immersion objective at room temperature (˜25° C.). […] Neurons were quickly visualized under fluorescence microscope and then patch clamp were achieved under infrared light illumination and CCD camera. […]

[2] = target: T2, hM3Dq (Homo sapiens, UniProt P20309, A239G/Y149C); assay: In vivo electrophysiological recording in caudate of anesthetized macaques, hM3Dq
T2 construct: expressed in transfected cells; host or cells: neurons of C57BL/6J mice or of macaques, transduced in vivo by nigral AAV8R12-G88P3-HA-hM3Dq
T2 sequence (P20309 whole entry Y149C/A239G): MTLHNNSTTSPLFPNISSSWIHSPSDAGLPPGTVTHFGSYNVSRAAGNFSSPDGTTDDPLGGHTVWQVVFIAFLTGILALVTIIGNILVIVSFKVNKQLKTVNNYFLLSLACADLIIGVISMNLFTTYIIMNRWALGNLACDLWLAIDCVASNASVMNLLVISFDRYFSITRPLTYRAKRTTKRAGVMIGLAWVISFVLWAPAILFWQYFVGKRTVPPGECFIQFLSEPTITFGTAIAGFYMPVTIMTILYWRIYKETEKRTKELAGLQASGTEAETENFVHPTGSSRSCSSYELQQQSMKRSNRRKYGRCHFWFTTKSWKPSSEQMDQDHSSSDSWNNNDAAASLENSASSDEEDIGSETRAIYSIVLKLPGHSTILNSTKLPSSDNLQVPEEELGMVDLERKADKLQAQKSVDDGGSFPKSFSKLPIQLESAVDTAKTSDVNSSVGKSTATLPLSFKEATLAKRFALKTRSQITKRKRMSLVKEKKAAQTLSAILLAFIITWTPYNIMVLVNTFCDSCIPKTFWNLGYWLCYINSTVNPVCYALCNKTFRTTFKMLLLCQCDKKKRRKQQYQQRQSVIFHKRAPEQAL
Description: • Electrophysiological recording was performed through a recording chamber while the monkey was anesthetized. Neural responses were recorded by a 16-channel linear probe (Plexon Inc, Uprobe) driven by a mechanical microdrive (Alpha Omega, FlexMT). Signals were passed through a head stage (Plexon Inc, HST/16V-G20 LN) and then split and filtered between 300 Hz and 5 kHz to identify spiking activity with an amplifier system (Plexon Inc, OmniPlex). Detected spikes were then sorted by commercially available software (Plexon Inc, Offline Sorter) for further analysis. To quantify the effect of CNO/DCZ injection, neural activity was recorded for 60 minutes following CNO/DCZ injection. The response time-course for each channel was obtained by counting the spikes within every 10-minute window and then normalizing to the maximal.
To determine the effect of CNO/DCZ injection on the direction of signal change, we performed Pearson correlation between neural responses and time using the ‘corr’ function in Matlab, which generates the correlation coefficient ‘r’ and significant level ‘p’. A neuron was considered to have “Increased” activity when r>0 and p<0.05; and considered to have “Decreased” activity when r<0 and p<0.05. Otherwise, neurons were considered to be “Unchanged” in their neural activities. The responses of all increased neurons were then averaged after being normalized by the maximal response (Crowe et al., 2014; Dai and Wang, 2018; Hirokawa et al., 2019) following CNO/DCZ injection, and then plotted as a function of time to generate the normalized population response.

[3] = 34 total cells, CNO infusions, saline 40.6%
[4] = monkey CM045, 34 cells, CNO infusion into dorsomedial caudate

C[N+]1([O-])CCN(C2=Nc3cc(Cl)ccc3Nc3ccccc32)CC1 [CNO, Clozapine-N-oxide]
excitability of labeled striatal MSNs upon CNO [1]: enhancement in the excitability | cells in caudate activated (FIG. 12L) ([2]; 34 total cells, CNO infusions, saline 18.8%): 67.6% | cells in caudate inactivated (FIG. 12L) [2, 3]: 2.9% | cells in caudate unchanged (FIG. 12L) [2, 3]: 29.4% | cells in caudate activated (FIG. 12C) [2, 4]: 70.6% | cells in caudate inactivated (FIG. 12C) [2, 4]: 8.8% | cells in caudate unchanged (FIG. 12C) [2, 4]: 20.6%
